According to US20140051714A1, “Modulators Of The GPR119 Receptor And The Treatment Of Disorders Related Thereto” (ARENA PHARMACEUTICALS, INC., priority 2011, published 2014):

Assays:
Male ZDF rats = test: Oral glucose tolerance test (oGTT) in male ZDF rats; assay type: in vivo; conditions: for % Inhibition of Glucose Excursion: 60 min prior to glucose bolus (3 g/kg), AUC relative to vehicle control
Protocol: Male ZDF rats were fasted for 18 h and randomly grouped (n=6) to receive the GPR119 agonist Compound 1 at 3, 10, or 30 mg/kg, the control compound Januvia (3 mg/kg), or a combination of Compound 1 (3 mg/kg) and Januvia (3 mg/kg). The compounds were delivered orally via a gavage needle (p.o., volume 4 mL/kg) 60 min prior to glucose bolus (3 g/kg) (time=−60 min in FIG. 4), with a separate group receiving vehicle (20% hydroxypropyl-beta-cyclodextrin (HPCD)) as control. At time 0 min. a glucose bolus was administered. Levels of blood glucose were assessed using a glucometer (One-Touch Ultra™, LifeScan) at time −60 min (prior to compound administration), at 0 min (at time when glucose bolus was given), and at 30, 60, 90, and 120 min post glucose bolus. The plasma glucose excursion curve (FIG. 4) is shown.

Male 129SVE mice [1] = test: GIP release in male 129SVE mice (plasma total GIP, ELISA); assay type: in vivo; conditions: 3 or 30 mg/kg p.o.; blood sample after 45 min
Protocol: Male 129SVE mice (approximately 8 weeks old) were fasted for 18 h and randomly grouped (n=6) to receive a GPR119 agonist (Compound 1) at 3 or 30 mg/kg body weight. Compound 1 was delivered orally via a gavage needle (4 mL/kg), and after 45 min a blood sample was collected to determine plasma total GIP levels. A separate control group received vehicle (PET (80% PEG: 10% Ethanol: 10% Tween80™)). Plasma GIP levels were determined using a GIP (total) ELISA kit from Millipore.

Male SD rats = test: Gastric emptying in male SD rats (stomach content 6 h post-dosing); assay type: in vivo; conditions: 3, 10, or 30 mg/kg orally
Protocol: Male SD rats were fasted for 18 h and randomly grouped (n=5). Fasted rats were allowed to access food for 30 min, and the amount of food consumed was recorded for each rat. At the end of the 30 min food intake, rats were put in cages without food and water, and dosed with Compound 1 at 3, 10, or 30 mg/kg, or vehicle control (20% HPCD) orally, or with exendin-4 (Ex-4) at 100 μg/kg i.p. Six hours post-dosing, rats were euthanized with CO2, and stomach content was determined.

GPR119 receptor = molecular target: T1, GPR119 receptor (Homo sapiens, UniProt Q8TDV5); test: HTRF cAMP detection assay in CHO-K1 cells stably expressing the GPR119 receptor; assay type: cell-based
T1 construct: expressed in transfected cells
T1 sequence (Q8TDV5 2-335): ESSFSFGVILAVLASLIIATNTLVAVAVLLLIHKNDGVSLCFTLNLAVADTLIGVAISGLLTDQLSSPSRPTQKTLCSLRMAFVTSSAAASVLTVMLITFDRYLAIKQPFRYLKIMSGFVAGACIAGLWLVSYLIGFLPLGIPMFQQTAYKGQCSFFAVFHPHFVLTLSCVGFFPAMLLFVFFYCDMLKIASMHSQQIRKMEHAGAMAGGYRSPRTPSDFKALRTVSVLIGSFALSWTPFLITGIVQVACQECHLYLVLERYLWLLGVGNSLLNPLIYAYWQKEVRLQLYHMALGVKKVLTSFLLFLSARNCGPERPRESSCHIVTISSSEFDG
Protocol: GPR119 agonist, Compound 1, was evaluated in an HTRF® cAMP detection assay (Cisbio, cAMP Dynamic 2 Assay Kit; #62AM4PEJ) according to the manufacturer's instructions using CHO-K1 cells stably expressing the GPR119 receptor. CHO-K1 cells were transduced with a lentiviral vector encoding the nucleotide sequence of GPR119 (NCBI mRNA and protein reference sequences: NM_178471.2 & NP_848566). The N-terminus of the GPR119 nucleotide sequence was modified to replace the first, methionine-coding, codon with a nucleotide sequence coding for a standard, nine amino acid, hemagglutinin tag. Following transduction, cells expressing the GPR119 receptor were isolated and a single clone was isolated following standard dilution-cloning procedures. On the day of the assay, cultured CHO-GPR119 cells were harvested, suspended in assay buffer and plated into 384-well assay plates (PerkinElmer® Proxiplate® #6008280) at a density of 2,000 cells per well. A cAMP standard curve was added to each plate. Compound 1 was dissolved in DMSO, serially diluted in DMSO and then diluted in assay buffer before addition to the cells. Compound 1 was evaluated in triplicate, using 10-point, 5-fold serial dilutions starting at 10 μM. […] Plates were then incubated at room temperature for 1 h prior to reading. Time-resolved fluorescence measurements were collected on PerkinElmer Envision™ or BMG Pherastar™ microplate readers. […]

Male 129SVE mice [2] = test: Oral glucose tolerance test (oGTT) in male 129SVE mice; assay type: in vivo; conditions: for Plasma Glucose, Mean: n=6
Protocol: Male 129SVE mice (approximately 8 weeks old) were fasted for 18 h and randomly grouped (n=6) to receive a GPR119 agonist (Compound 1) at 3, 10, or 30 mg/kg body weight. The compound was delivered orally via a gavage needle (4 mL/kg) 30 min prior to glucose bolus (3 g/kg) (time=−30 min in FIG. 1), with a separate control group receiving vehicle (20% hydroxypropyl-beta-cyclodextrin (HPCD). At time 0 min, the glucose bolus was administered. Levels of blood glucose were assessed using a glucometer (One-Touch Ultra™, LifeScan) at time −30 min (prior to compound administration), at 0 min (at time when glucose bolus was given), and at 20, 40, 60, 120 min post glucose bolus. The plasma glucose level (Table A) and glucose excursion curve (FIG. 1) are shown. Glucose excursion reduction (area under the curve (AUC)) in compound treated animals relative to vehicle control is given in FIG. 2.

## N[C@@H](CC(=O)N1CCn2c(nnc2C(F)(F)F)C1)Cc1cc(F)c(F)cc1F [Januvia, 3(R)-amino-1-[3-(trifluoromethyl)-5,6,7,8-tetrahydro[1,2,4]triazolo[4,3-a]pyrazin-7-yl]-4-(2,4,5-trifluorophenyl)butan-1-one phosphate, reference compound]
Male ZDF rats; 3 mg/kg p.o.
  % Inhibition of Glucose Excursion: 54.2%

## CCc1cnc(N2CCC(Oc3ncnc(Oc4ccc(S(C)(=O)=O)nc4C)c3F)CC2)nc1 [Compound 1, 4-(1-(5-ethylpyrimidin-2-yl)piperidin-4-yloxy)-5-fluoro-6-(2-methyl-6-(methylsulfonyl)pyridin-3-yloxy)pyrimidine]
Male 129SVE mice [1]
  Effect on GIP release (plasma total GIP): stimulates the release of GIP
Male SD rats
  Effect on gastric emptying: no significant effect on gastric emptying
GPR119 receptor
  Agonist character at GPR119 (HTRF assay): full agonist
Male 129SVE mice [2]; 3 mg/kg p.o., 20 min post glucose bolus
  Plasma Glucose, Mean: 282.8333 mg/dL
Male 129SVE mice [2]; 3 mg/kg p.o., 40 min post glucose bolus
  Plasma Glucose, Mean: 301.6667 mg/dL
Male 129SVE mice [2]; 3 mg/kg p.o., 60 min post glucose bolus
  Plasma Glucose, Mean: 270.6667 mg/dL
Male 129SVE mice [2]; 3 mg/kg p.o., 120 min post glucose bolus
  Plasma Glucose, Mean: 151.3333 mg/dL
Male 129SVE mice [2]; 3 mg/kg p.o., time 0 min relative to glucose bolus (3 g/kg)
  Plasma Glucose, Mean: 83.83 mg/dL
Male 129SVE mice [2]; 3 mg/kg p.o., time −30 min relative to glucose bolus (prior to compound administration)
  Plasma Glucose, Mean: 75 mg/dL
Male 129SVE mice [2]; 10 mg/kg p.o., 20 min post glucose bolus
  Plasma Glucose, Mean: 254.3333 mg/dL
Male 129SVE mice [2]; 10 mg/kg p.o., 40 min post glucose bolus
  Plasma Glucose, Mean: 276.8333 mg/dL
Male 129SVE mice [2]; 10 mg/kg p.o., 60 min post glucose bolus
  Plasma Glucose, Mean: 197.8333 mg/dL
Male 129SVE mice [2]; 10 mg/kg p.o., 120 min post glucose bolus
  Plasma Glucose, Mean: 134 mg/dL
Male 129SVE mice [2]; 10 mg/kg p.o., time 0 min relative to glucose bolus (3 g/kg)
  Plasma Glucose, Mean: 95.67 mg/dL
Male 129SVE mice [2]; 10 mg/kg p.o., time −30 min relative to glucose bolus (prior to compound administration)
  Plasma Glucose, Mean: 75.67 mg/dL
Male 129SVE mice [2]; 3, 10, or 30 mg/kg p.o., 30 min prior to glucose bolus (3 g/kg)
  Effect on blood glucose after challenge with glucose: lowered blood glucose
Male 129SVE mice [2]; dose of 10 mg/kg
  Effect on plasma glucose levels in oGTT: significantly reduced plasma glucose levels
Male ZDF rats; 3 mg/kg p.o.
  % Inhibition of Glucose Excursion: 19.1%
Male ZDF rats; 10 mg/kg p.o.
  % Inhibition of Glucose Excursion: 30.2%
Male ZDF rats; 30 mg/kg p.o.
  % Inhibition of Glucose Excursion: 60.7%
Male ZDF rats; diabetic ZDF rats, 3, 10, or 30 mg/kg p.o.
  Effect on blood glucose after a challenge with glucose: lowered blood glucose
